This assay deals with T1, full length AKT1 (Homo sapiens, UniProt P31749).
T1 construct: His tag (from vector pFastBacHTb; purified on Nickel Sepharose) (N); made in house; host or cells: baculovirus; Sf9 / T. ni insect cells
As to the kind of experiment: Full-Length AKT Enzyme Assay (substrate phosphorylation, SPA). It is filed as biochemical. The settings on record: in at least one experimental run; pIC50 = -log(IC50), IC50 in molar units; 10 nM activated AKT enzyme, 4 uM ATP, 8 uM peptide; read-out: pIC50 value against full length AKT1 (converted). The source says:
Cloning of Full-Length Human (FL) AKT1:
Full-length human AKT1 gene was amplified by PCR from a plasmid containing myristylated-AKT1-ER (gift from Robert T. Abraham, Duke University under MTA, described in Klippel et al. in Molecular and Cellular Biology 1998 Volume 18 p. 5699) using the 5′ primer: SEQ. ID NO: 2 5′ […] 3′ and the 3′ primer: SEQ. ID NO: 3 […] 3′. The 5′ primer included a BamHI site and the 3′primer included an XhoI site for cloning purposes. The resultant PCR product was subcloned in pcDNA3 as a BamHI/XhoI fragment. A mutation in the sequence (TGC) coding for a Cysteine^25 was converted to the wild-type AKT1 sequence (CGC) coding for an Arginine^25 by site-directed mutagenesis using the QuikChange® Site Directed Mutagenesis Kit (Stratagene). The AKT1 mutagenic primer: SEQ. ID NO: 4 5′ […] and selection primer: SEQ. […] For expression/purification purposes, AKT1 was isolated as a BamHI/XhoI fragment and cloned into the BamHI/XhoI sites of pFastbacHTb (Invitrogen).
Expression was done using the BAC-to-BAC Baculovirus Expression System from Invitrogen (catalog #10359-016). […]
Compounds of the present invention were tested for AKT 1, 2, and 3 protein serine kinase inhibitory activity in substrate phosphorylation assays. […] Substrate phosphorylation was detected by the following procedure. […]

T1 sequence (P31749 whole entry): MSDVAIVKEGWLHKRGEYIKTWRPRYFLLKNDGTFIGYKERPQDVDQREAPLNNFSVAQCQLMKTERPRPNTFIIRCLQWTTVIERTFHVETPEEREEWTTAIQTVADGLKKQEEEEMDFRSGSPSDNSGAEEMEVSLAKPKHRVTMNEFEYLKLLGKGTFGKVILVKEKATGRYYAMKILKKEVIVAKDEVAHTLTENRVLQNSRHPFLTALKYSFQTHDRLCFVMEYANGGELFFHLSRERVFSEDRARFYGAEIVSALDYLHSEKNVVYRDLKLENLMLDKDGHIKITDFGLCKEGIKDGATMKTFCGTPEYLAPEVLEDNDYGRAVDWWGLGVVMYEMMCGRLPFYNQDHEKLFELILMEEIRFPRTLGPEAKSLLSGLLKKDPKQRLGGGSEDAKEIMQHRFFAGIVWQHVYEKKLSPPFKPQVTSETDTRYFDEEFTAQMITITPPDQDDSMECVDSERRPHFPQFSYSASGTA

Turning to `Cn1nccc1-c1ccc(C(=O)NC(CN)Cc2ccccc2)cn1` (stereo not shown) [Example 2, N-[2-amino-1-(phenylmethyl)ethyl]-6-(1-methyl-1H-pyrazol-5-yl)-3-pyridinecarboxamide], the IC50 is 10 nM.

These data come from patent US8338434B2, “Inhibitors of Akt activity” (GlaxoSmithKline LLC, priority 2007, dated 2012).
